Measurements from patent US20210253511A1, “COMPOUNDS AND USES FOR THE TREATMENT AND PREVENTION OF DISEASES AND CONDITIONS ASSOCIATE WITH OR AGGREVATED BY IMPARED MITOPHAGY” (Yissum Research Development Company of The Hebrew …, priority 2018, published 2021).

System: C. elegans worms in 200 mM paraquat (PQ)
Test: Paraquat survival assay
Assay type: in vivo
Conditions: 200 mM PQ; for protective effect on worms' survival in PQ (figure legend): concentration not given, log-rank test
Description: C. elegans strains were grown at 21° C. on nematode growth media (NGM) agar plates containing diamines or vehicle as a control. The NGM agar plates were prepared as described in L. Livshits, E. Gross, A method for measuring sulfide toxicity in the nematode Caenorhabditis elegans, MethodsX 4 (2017) 250-255. A suspension of 3 g sodium chloride (NaCl), 20 g Bacto agar, and 2.5 g of Bacto peptone in 1 L of double distilled water (DDW) was mixed and autoclaved. Then, the medium was cooled to 55° C. and supplemented with 1 ml of 100 mM CaCl2), 1 ml of 100 mM MgSO4, 25 ml of 1 M potassium phosphate buffer pH 6, and 1 ml of 5 mg/ml cholesterol (the cholesterol was dissolved in ethanol). Diamines or DDW (vehicle) were added to the NGM-agar solution. For RNAi NGM-agar plates, Isopropyl β-D-1-thiogalactopyranoside (IPTG) and ampicillin were added to a final concentration of 1 mM and 100 μg/ml, respectively. The NGM-agar solution was thoroughly vortex mixed and immediately poured into 35 mm petri dish (4 ml per plate). NGM-plates were covered with aluminum foil and dried for 24 h at room temperature (RT). 24 h before the experiment, plates were seeded with 100 μl bacteria (OD600=0.6, OP50 or HT115(DE3)). The seeded plates were covered with aluminum foil and dried for 24 h at RT.
To get synchronized C. elegans larvae, the method described in W. B. Wood, The Nematode Caenorhabditis Elegans, Cold Spring Harbor Laboratory 1988, was performed. In brief, hypochlorite/NaOH solution was made by mixing 1 ml of 5% solution of sodium hypochlorite, 800 μl of 2.5 N NaOH and 2.2 ml DDW to final concentrations of 0.5 N NaOH and 1.25% sodium hypochlorite. M9 buffer was made by dissolving 3 g KH2PO4, 6 g Na2HPO4, 5 g NaCl and 1 ml of MgSO4 from 1M stock in 1 litter of DDW. The solution pH was adjusted to 7 and sterilizes by filtration (with a 0.2 µm filter bottle). Gravid hermaphrodites was washed from the NGM plates into a 15 ml tube with M9 buffer and centrifuged for 2 min at 900×g, RT. Liquid was removed until 2 ml worms' suspension was left and added 2 ml of hypochlorite/NaOH solution. A 5 ml syringe with a 21-gauge needle was used to aspirate the worm suspension back and forth several times. After 3 min it was observed the state of the worms using a dissecting stereoscope. At this stage, approximately 50% of worms should appear broken and many of the embryos should float in the solution. The embryos were immediately sedimented using centrifugation (1690×g for 2 min) and carefully removed the supernatant and add 10 ml of M9 buffer. This washing step was repeated three additional times. The supernatant was removed until 2 ml remains and rotated the tube for 16 h at RT. The hatched L larvae were collected by centrifugation (1690×g for 3 min) and put ˜80 L in each seeded NGM assay plate. Grow the L1 (Day 1) for 3 days until they become young adults (Day 3).

[1] = compound at 0.25 mM, vs control worms
[2] = compound at 4 mM, vs control worms
[3] = tested at 0.0625 mM and 0.25 mM, not split

Structure (SMILES) | survival of worms in paraquat [1] | survival of worms in paraquat [2] | protective effect on worms' survival in PQ (figure legend) | survival of worms in paraquat (compound at 0.0625 mM, vs control worms) | survival of worms in paraquat [3]
NCCCCCCN [1,6-Diaminohexane] | did not have any effect | did not have any effect | – | – | –
N=C(N)NCCCCCCNC(=N)N [1,6-Diguanidinohexane] | significantly improve the survival of worms | – | significant protective effect | significantly improve the survival of worms | –
NOCCCCCCCCON [1,8-diaminooxy-octane] | – | – | significant protective effect | – | significantly improved the survival of worms in PQ
N=C(N)NCCCCCCCCNC(=N)N [1,8-diguanidinooctane] | – | – | significant protective effect | – | significantly improved the survival of worms in PQ
NOCCCCCCCCCON [1,9-diaminooxy-nonane] | – | – | significant protective effect | – | significantly improved the survival of worms in PQ
NCCCCCCCCCCN [1,10-Diaminodecane] | significantly improved worms' survival | significantly decreased worms' survival | – | – | –
NCCCCCCCCCCCCN [1,12-Diaminododecane] | did not | significantly improved their survival | – | – | –
